Data taken from ChEMBL document CHEMBL5233251, “Epoxide containing molecules: A good or a bad drug design approach” (Eur J Med Chem, 2020).
≈ marks a conversion by molar mass, not a printed value. Where a SMILES comes first, the peptide text is derived from it. [ ]: non-standard residue; d: D form. Aoe = N[C@@H](CCCCCC(=O)[C@@H]1CO1)C(=O)O

How the values were obtained:
[1] = system: MCF7; assay: Cytotoxicity against human MCF7 cells incubated for 24 hrs by MTT assay; format: functional, cell-based; settings: MCF7, 24 h
[2] = system: HCT-116; assay: Antiproliferative activity against human HCT-116 cells assessed as inhibition of cell growth at 25 ug/ml incubated for 72 hrs by MTT assay relative to control; format: functional; parameters: scale not given: the % may be the effect or the level left; settings: dose 25 µg/ml
[3] = system: OVCAR-8; assay: Antiproliferative activity against human OVCAR-8 cells assessed as inhibition of cell growth at 25 ug/ml incubated for 72 hrs by MTT assay relative to control; format: functional; parameters: scale not given: the % may be the effect or the level left; settings: dose 25 µg/ml
[4] = system: SF-295; assay: Antiproliferative activity against human SF-295 cells assessed as inhibition of cell growth at 25 ug/ml incubated for 72 hrs by MTT assay relative to control; format: functional; parameters: scale not given: the % may be the effect or the level left; settings: dose 25 µg/ml
[5] = system: HCT-116; assay: Antiproliferative activity against human HCT-116 cells assessed as inhibition of cell growth incubated for 72 hrs by MTT assay; format: functional, cell-based; settings: HCT-116, 72 h
[6] = system: OVCAR-8; assay: Antiproliferative activity against human OVCAR-8 cells assessed as inhibition of cell growth incubated for 72 hrs by MTT assay; format: functional, cell-based; settings: OVCAR-8, 72 h
[7] = system: SF-295; assay: Antiproliferative activity against human SF-295 cells assessed as inhibition of cell growth incubated for 72 hrs by MTT assay; format: functional, cell-based; settings: SF-295, 72 h
[8] = system: HL-60; assay: Antiproliferative activity against human HL-60 cells assessed as inhibition of cell growth incubated for 72 hrs by MTT assay; format: functional, cell-based; settings: HL-60, 72 h
[9] = system: Leishmania donovani; assay: Antileishmanial activity against Leishmania donovani promastigotes; format: functional, organism-based
[10] = system: SW480; assay: Induction of apoptosis in human SW480 cells assessed as accumulation of cells at 5 uM incubated for 24 hrs by Acridine orange/ethidium bromide staining based fluorescent microscopic analysis (reference value: 13.6%); format: functional
[11] = system: Ehrlich; assay: Antitumor activity against mouse Ehrlich cells implanted in ddY mouse assessed as T/C ratio at 70 mg/kg administered for 9 to 10 days; format: functional; settings: time 9-10 day
[12] = system: Sarcoma-180; assay: Antitumor activity against mouse Sarcoma-180 cells ascitic form implanted in ICR mouse assessed as T/C ratio at 100 mg/kg, ip administered from day 1 to 5 and measured after 60 days; format: functional; settings: time 60 day
[13] = system: Sarcoma-180; assay: Antitumor activity against mouse Sarcoma-180 cells solid form implanted in ICR mouse assessed as T/C ratio at 12.5 mg/kg, ip administered from day 1 to 5 and measured after 60 days; format: functional; settings: time 60 day
[14] = Antitumor activity against IMC (unknown origin) cells xenografted in CDF1 mouse assessed as T/C ratio at 200 mg/kg, ip administered from day 1 to 5 and measured after 60 days; format: functional; settings: time 60 day
[15] = system: B16; assay: Antitumor activity against mouse B16 cells implanted in BDF1 mouse assessed as T/C ratio at 25 mg/kg, ip administered from day 1 to 5 and measured after 60 days; format: functional; settings: time 60 day
[16] = system: T47D; assay: Antiproliferative activity against human T47D cells assessed as inhibition of cell proliferation incubated for 72 hrs by DAPI staining based flow cytometric analysis; format: functional
[17] = Antiproliferative activity against human SH-EP cells assessed as inhibition of cell growth by tryphan blue exclusion assay; format: functional, cell-based
[18] = system: BE(2)-C; assay: Antiproliferative activity against human BE2C cells assessed as inhibition of cell growth by tryphan blue exclusion assay; format: functional, cell-based
[19] = system: HUVEC; assay: (§1) Cytotoxicity against HUVEC cells assessed as inhibition of cell growth incubated for 72 hrs by MTT assay; format: toxicity, cell-based, Homo sapiens; settings: huvec
[20] = system: MIA PaCa-2; assay: Cytotoxicity against human MIA PaCa-2 cells assessed as inhibition of cell proliferation incubated for 72 hrs by MTT assay; format: functional, cell-based
[21] = Cytotoxicity against human DeFew cells assessed as inhibition of cell proliferation incubated for 72 hrs by MTT assay; format: functional, cell-based
[22] = as §1; format: toxicity, cell-based, Homo sapiens; settings: human, HUVEC cells
[23] = system: A549; assay: Antiproliferative activity against human A549 cells assessed as reduction in cell viability incubated for 72 hrs by MTT assay; format: functional, cell-based; settings: A549, 72 h
[24] = system: NCI-H460; assay: Antiproliferative activity against human NCI-H460 cells assessed as reduction in cell viability incubated for 72 hrs by MTT assay; format: functional, cell-based; settings: NCI-H460, 72 h
[25] = system: NCI-H1299; assay: Antiproliferative activity against human NCI-H1299 cells assessed as reduction in cell viability incubated for 72 hrs by MTT assay; format: functional, cell-based; settings: NCI-H1299, 72 h
[26] = system: SK-MES-1; assay: Antiproliferative activity against human SK-MES-1 cells assessed as reduction in cell viability incubated for 72 hrs by MTT assay; format: functional, cell-based; settings: SK-MES-1, 72 h
[27] = system: Calu-3; assay: Antiproliferative activity against human Calu-3 cells assessed as reduction in cell viability incubated for 72 hrs by MTT assay; format: functional, cell-based; settings: Calu-3, 72 h
[28] = Cytotoxicity against human BEAS-2B assessed as reduction in cell viability incubated for 72 hrs by MTT assay; format: toxicity, cell-based; settings: BEAS-2B cells
[29] = system: DOHH-2; assay: Antitumor activity against human DOHH-2 cells assessed as reduction in cell viability; format: functional, cell-based
[30] = system: SUD4; assay: Antitumor activity against human SU-DHL-4 cells assessed as reduction in cell viability; format: functional, cell-based
[31] = Antitumor activity against human INA-6 cells assessed as reduction in cell viability; format: functional, cell-based
[32] = system: RPMI-8226; assay: Antitumor activity against human RPMI-8226 cells assessed as reduction in cell viability; format: functional, cell-based
[33] = Induction of apoptosis in human multiple myeloma cell; format: functional, cell-based

**Q.** With COc1cc(CNC(=O)CCCCC2OC2C(C)C)ccc1O (stereo not given) as the compound, how does the IC50 [1] read?
**A.** Its IC50 is 50 µM.

**Q.** What does the source list for C[C@]1([C@H]2CC=C(C=O)CC2)CO1?
**A.** Activity [2]: 96.32%; Activity [3]: 96.32%; Activity [4]: 96.32%; IC50 [5]: 1.03 µg/mL (≈ 6.2 µM); IC50 [6]: 1.03 µg/mL (≈ 6.2 µM); IC50 [7]: 1.03 µg/mL (≈ 6.2 µM); IC50 [8]: 1.03 µg/mL (≈ 6.2 µM); IC50 [9]: 3.87 µg/mL (≈ 23.3 µM)

**Q.** With C[C@H]1C(=O)OC([C@@H](O)[C@](C)(O)[C@H]2[C@@H](O)C[C@H]3[C@@H]4C[C@H]5O[C@]56[C@@H](O)C=CC(=O)[C@]6(C)[C@H]4CC[C@]23C)[C@@H]1C (stereo not given in full) as the compound, how does the Activity [10] read?
**A.** Its Activity is 33.8%.

**Q.** For CO[C@H]1[C@@H](OC)C[C@H](C)[C@@H](OC)C2=CC(=O)C(N3CCN(C)CC3)=C(NC(=O)/C(C)=C/C=C\[C@H](OC)[C@H](OC(N)=O)C3(C)CC3[C@@H]1C)C2=O (stereo not given in full), which T/C [11] is on record?
**A.** The T/C was 141%.

**Q.** What about the T/C [12] of the same compound?
**A.** Its T/C is 200%.

**Q.** What about the T/C [13] of the same compound?
**A.** The T/C was 167%.

**Q.** What about the T/C [14] of the same compound?
**A.** The T/C was 358%.

**Q.** What about the T/C [15] of the same compound?
**A.** Its T/C is 155%.

**Q.** Which IC50 [16] does the source give for C[C@@H]1NC(=O)[C@@H](C)NC(=O)[C@H](CCCCCC(=O)[C@@H]2CO2)NC(=O)[C@H]2CCCN2C1=O (cyclo(A[dP][Aoe][dA])) here?
**A.** Its IC50 is 0.037 µM.

**Q.** What about the IC50 [17] of the same compound?
**A.** The IC50 was 0.018 µM.

**Q.** And the IC50 [18]?
**A.** Its IC50 is 0.015 µM.

**Q.** For CC(C)=CCCC1(C)OC1C=O (stereo in doubt; 10a), which IC50 [19] is on record?
**A.** The IC50 was 200 µM.

**Q.** What about the IC50 ([20]; mia paca-2) of the same compound?
**A.** Its IC50 is 88.7 µM.

**Q.** What about the IC50 ([21]; defew) of the same compound?
**A.** Its IC50 is 45 µM.

**Q.** For CC(C)=CCCC1(C)OC1C=O (stereo in doubt; 10b), which IC50 at 72 h [22] is on record?
**A.** The IC50 at 72 h was 162 µM.

**Q.** And the IC50 ([20]; Homo sapiens, MIA PaCa-2, 72 h)?
**A.** The IC50 was 94 µM.

**Q.** What about the IC50 ([21]; Homo sapiens, DeFew, 72 h) of the same compound?
**A.** Its IC50 is 89 µM.

**Q.** Which IC50 [23] does the source give for CC(=O)O[C@H]1[C@H]2O[C@]23[C@@H]2CC[C@@H]4C[C@@H](O)CC[C@]4(C)[C@H]2CC[C@]3(C)[C@H]1c1ccc(=O)oc1 [CINOBUFAGIN] here?
**A.** The IC50 was 2.3 µM.

**Q.** What about the IC50 [24] of the same compound?
**A.** The IC50 was 2.3 µM.

**Q.** What about the IC50 [25] of the same compound?
**A.** Its IC50 is 2.3 µM.

**Q.** What about the IC50 [26] of the same compound?
**A.** The IC50 was 2.3 µM.

**Q.** What about the IC50 [27] of the same compound?
**A.** Its IC50 is 2.3 µM.

**Q.** And the IC50 at 72 h [28]?
**A.** Its IC50 at 72 h is 22.3 µM.

**Q.** Which EC50 [29] does the source give for CC1=C(O)C(=O)c2c(ccc(O)c2O)C1=O [DIONCOQUINONE B] here?
**A.** Its EC50 is 7.6 µM.

**Q.** And the EC50 [30]?
**A.** The EC50 was 7.6 µM.

**Q.** What about the EC50 [31] of the same compound?
**A.** Its EC50 is 7.6 µM.

**Q.** What about the EC50 [32] of the same compound?
**A.** The EC50 was 7.6 µM.

**Q.** And the EC50 [33]?
**A.** The EC50 was 11 µM.
